US8871751B2, “Compositions and methods relating to nuclear hormone and steroid hormone receptors including inhibitors of estrogen receptor alpha-mediated gene expression and inhibition of breast cancer” (The Board of Trustees of the University of Illinois, priority 2008, dated 2014)

Key:
[1] = target: T1, human androgen receptor (AR) binding to flARE (Homo sapiens, UniProt P10275); experiment: FAMA: inhibition of AR binding to flcARE; details: binding to HRE, 5 concentrations 0.5-10 μM, sequential method
T1 construct: AR assays contained 1 nM flcARE and 50 nM full-length wild-type AR; FLAG; made in house
T1 sequence (P10275 1-920): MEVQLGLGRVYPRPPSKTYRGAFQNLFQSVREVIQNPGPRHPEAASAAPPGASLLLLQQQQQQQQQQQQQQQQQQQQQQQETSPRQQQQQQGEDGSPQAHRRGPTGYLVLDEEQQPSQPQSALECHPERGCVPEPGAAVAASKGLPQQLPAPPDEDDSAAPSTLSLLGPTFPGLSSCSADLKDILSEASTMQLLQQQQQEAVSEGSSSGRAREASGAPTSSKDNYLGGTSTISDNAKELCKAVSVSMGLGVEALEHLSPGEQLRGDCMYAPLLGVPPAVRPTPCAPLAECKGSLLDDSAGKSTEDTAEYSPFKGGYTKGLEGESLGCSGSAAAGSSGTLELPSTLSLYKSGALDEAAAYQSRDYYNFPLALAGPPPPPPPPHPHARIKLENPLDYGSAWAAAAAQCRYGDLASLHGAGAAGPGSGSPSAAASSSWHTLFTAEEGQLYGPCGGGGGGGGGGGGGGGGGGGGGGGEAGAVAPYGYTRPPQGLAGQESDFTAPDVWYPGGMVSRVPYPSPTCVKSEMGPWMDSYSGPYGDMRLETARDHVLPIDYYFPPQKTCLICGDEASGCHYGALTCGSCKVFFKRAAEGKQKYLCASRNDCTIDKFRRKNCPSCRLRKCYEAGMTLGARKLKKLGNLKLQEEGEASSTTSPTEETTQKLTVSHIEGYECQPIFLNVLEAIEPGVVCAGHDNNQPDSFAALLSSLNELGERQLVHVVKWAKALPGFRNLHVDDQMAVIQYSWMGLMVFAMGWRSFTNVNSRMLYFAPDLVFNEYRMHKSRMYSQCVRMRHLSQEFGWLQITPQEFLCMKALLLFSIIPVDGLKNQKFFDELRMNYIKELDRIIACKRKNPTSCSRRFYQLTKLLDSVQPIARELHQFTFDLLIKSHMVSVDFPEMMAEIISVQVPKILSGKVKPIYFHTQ
Description: (§1) Dose response curves for selected compounds were carried out as described for the HTS screen except that each well contained the indicated concentration of test compound. PR assays were carried out in the same buffer used for ERα assays and contained 1 nM flcPRE and 11 nM PR-B and 100 nM progesterone. The buffer used for AR was similar but also contained 5 μM ZnCl, 5 mM NaF, 0.6 μM CHAPS and 100 nM dihydrotestosterone. AR assays contained 1 nM flcARE and 50 nM full-length wild-type AR.
(§2) Specificity was evaluated in dose-response studies by quantitative FAMA using purified full-length human PR binding to a fluorescein-labeled progesterone/glucocorticoid response element (flPRE) and full-length human androgen receptor (AR) binding to a fluorescein-labeled androgen response element (flARE).

[2] = target: T2, human ERα binding to flcERE (Homo sapiens, UniProt P03372); experiment: FAMA: inhibition of ERα binding to flcERE; details: FAMA, binding to HRE, 5 concentrations 0.5-10 μM, sequential method; read-out: IC50 ERα
T2 construct: Full-length FLAG-tagged human ERα was expressed and purified as described previously (27); FLAG; made in house
T2 sequence (P03372 1-595): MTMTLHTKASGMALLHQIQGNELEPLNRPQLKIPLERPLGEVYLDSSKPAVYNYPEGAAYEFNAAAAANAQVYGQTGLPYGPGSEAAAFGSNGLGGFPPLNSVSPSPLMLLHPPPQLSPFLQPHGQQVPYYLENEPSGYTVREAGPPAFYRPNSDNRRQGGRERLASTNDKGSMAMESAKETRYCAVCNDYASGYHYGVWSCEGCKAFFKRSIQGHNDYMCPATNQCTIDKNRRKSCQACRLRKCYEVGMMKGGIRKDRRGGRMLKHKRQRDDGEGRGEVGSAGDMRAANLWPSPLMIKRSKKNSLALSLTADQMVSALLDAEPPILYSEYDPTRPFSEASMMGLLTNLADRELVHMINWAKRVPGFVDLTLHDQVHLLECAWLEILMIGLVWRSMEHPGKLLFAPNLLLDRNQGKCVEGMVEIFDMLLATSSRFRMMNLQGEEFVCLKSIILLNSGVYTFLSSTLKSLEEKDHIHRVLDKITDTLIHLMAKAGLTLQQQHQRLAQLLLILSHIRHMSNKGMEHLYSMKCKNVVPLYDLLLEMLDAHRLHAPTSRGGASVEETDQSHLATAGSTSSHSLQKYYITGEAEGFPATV
Description: Prior to screening, the 10 mM library stocks were diluted to produce replica libraries in 384-well plates containing each small molecule at 0.25 mM (in DMSO). In our initial studies we were concerned that forming the flcERE-ERα complex first and then adding the candidate small molecule inhibitors would miss small molecules that bind at the interface. We therefore screened using the “sequential” method in which the candidate small molecules were first incubated with ERα and followed by addition of the flcERE. The assay for binding of ERα to the flcERE is a modification of our earlier assay (27). Assays were carried out at room temperature in black wall 384-well microplates (Greiner/Bio-One) in a total volume of 10 μl in buffer containing 20 mM Tris pH 7.5, 10% glycerol, 0.2 mM EDTA, 2 mM DTT, 100 mM KCl, 0.5 ng/μl poly dl:dC, […] bovine serum albumin and 100 nM 17β-estradiol (E2). For high throughput screening, a master mix without ERα and probe was prepared at 4° C. The master mix was divided into 2 parts. ERα was added to one part to 5 nM in the final assays. 7 μl of the ERα-containing mix was then dispensed into each well of a 384-well plate on ice. 100 nl of the compounds being tested was then added using a pin-transporter (V & P Scientific, Inc, CA) to a final concentration of 2.5 μM. The samples were mixed using the pin-transporter and sedimented by centrifugation for 2 min. at 4° C. and incubated on ice for 10 min. The flcERE probe was added to the other aliquot of the mix to 1 nM. 3 μl of the mix containing the flcERE probe was added to each well containing ERα and the test compound. The samples were mixed using the pin-transporter, the plates were briefly centrifuged and incubated at room temperature for 10 min. and fluorescence anisotropy (FA) was measured using a BMG PheraStar (BMG Labtech) microplate reader (module: 485 520) with excitation at 485λ and emission at 520λ. To identify small molecules that were highly fluorescent, or quench fluorescence, fluorescence intensity was also measured.
as §1

[3] = target: T3, human PR-B binding to flPRE (Homo sapiens, UniProt P06401); experiment: FAMA: inhibition of PR binding to flcPRE; details: binding to HRE, 5 concentrations 0.5-10 μM, sequential method
T3 construct: FLAG; made in house
T3 sequence (P06401 1-933): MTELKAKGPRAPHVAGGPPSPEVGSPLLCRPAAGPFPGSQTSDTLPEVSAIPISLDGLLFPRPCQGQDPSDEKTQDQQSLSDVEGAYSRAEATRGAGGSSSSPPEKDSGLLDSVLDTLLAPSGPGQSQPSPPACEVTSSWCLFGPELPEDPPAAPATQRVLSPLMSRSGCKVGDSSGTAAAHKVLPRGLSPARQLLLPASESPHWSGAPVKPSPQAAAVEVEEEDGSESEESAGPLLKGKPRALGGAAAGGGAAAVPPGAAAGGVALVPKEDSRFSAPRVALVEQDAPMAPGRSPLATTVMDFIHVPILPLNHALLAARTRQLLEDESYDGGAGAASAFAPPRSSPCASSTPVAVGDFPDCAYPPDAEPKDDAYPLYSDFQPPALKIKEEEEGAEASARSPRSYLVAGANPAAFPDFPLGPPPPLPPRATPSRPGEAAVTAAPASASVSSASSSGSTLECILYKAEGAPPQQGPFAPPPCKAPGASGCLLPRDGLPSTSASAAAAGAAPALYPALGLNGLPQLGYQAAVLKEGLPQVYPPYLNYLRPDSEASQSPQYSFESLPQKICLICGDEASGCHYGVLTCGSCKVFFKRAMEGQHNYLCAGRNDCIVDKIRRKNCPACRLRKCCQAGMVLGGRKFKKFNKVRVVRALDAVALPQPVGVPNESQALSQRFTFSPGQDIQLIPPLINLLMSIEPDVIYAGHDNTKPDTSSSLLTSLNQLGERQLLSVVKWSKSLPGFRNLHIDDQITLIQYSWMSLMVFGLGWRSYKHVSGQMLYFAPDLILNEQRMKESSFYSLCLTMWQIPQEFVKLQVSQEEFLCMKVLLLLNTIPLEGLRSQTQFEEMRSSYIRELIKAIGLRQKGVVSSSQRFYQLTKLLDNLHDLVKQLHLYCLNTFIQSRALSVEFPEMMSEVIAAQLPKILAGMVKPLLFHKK
Description: as §1, §2

ERα = target: T4, ERα (Homo sapiens, UniProt P03372); experiment: (ERE)3-luciferase reporter gene assay in T47D-KBluc cells; format: cell-based; set-up: Using a stably transfected breast cancer cell line that expresses endogenous ERα; endogenous in cells; host or cells: T47D-KBluc
T4 sequence (P03372 1-595): T2 sequence (P03372 1-595)
Description: The T47D-KBluc cells stably express an (ERE)3-luciferase reporter gene (38). […] Four days before E2 induction, the cells were switched to the above medium, with 10% 2× charcoal-dextran-treated calf serum instead of FBS. 200,000 cells/well were transferred to each well of a 24-well plate. After 24 h the indicated concentrations of the test compounds were added in DMSO and E2 was added to 20 pM. After 24 h cells were washed once in PBS, and 150 μl 1× Passive Lysis Buffer (Promega, Madison Wis.) was used to lyse the cells. Luciferase activity was determined using firefly luciferase reagents from Promega (Madison, Wis.).
Reporter Gene Assays. […] AR was assayed in stably transfected HeLa cells and GR was assayed in stably transfected T47D cells maintained as described above. Four days before each experiment the cells were switched to medium containing CD-treated serum as described above. The HeLaAR cells were plated at 100,000 cells/well and the T47D/A1-2 and T47D-KBluc cells were plated at 200,000 cells/well in 1 ml of their respective media in 24-well plates. After 24 hours the indicated concentrations of E2, dihydrotestosterone (DHT) or dexamethasone (Dex) and DMSO vehicle, with or without TPSF, were added to each well. After 24 hours, the cells were washed once in phosphate buffered saline and lysed using 100 μl of 1× Passive Lysis Buffer (Promega, Madison Wis.). Luciferase activity was determined using BrightGlo firefly luciferase reagent from Promega (Madison, Wis.).

| IC50 [1] [µM] | IC50 [2] [µM] | IC50 [3] [µM] | potency as ERα inhibitor relative to TPSF (less potent) (ERα) [fold] | IC50 (ERα; T47D (ERE)3-Luc cells, 24 h, FIG. 13, E2 concentration for 99676 not stated, read-out: IC50 for inhibition of ERα-mediated gene expression) [µM] | SMILES |
| --- | --- | --- | --- | --- | --- |
| > 10 | 8 | > 10 | – | – | CC1=NNC(=S)NCCCN2CCN(CCCNC(=S)NN=C(C)C=NNC(=S)NCCCN3CCN(CCCNC(=S)NN=C1)CC3)CC2 [Compound 91767] |
| – | – | – | ~13 | 9 | Cn1c(=S)c2[nH]c(SCCCc3ccccc3)nc2n(C)c1=O [Compound 99676] |
| > 10 | 3.8 | > 10 | – | – | O=C(O)c1cccc(N=Nc2c(S(=O)(=O)O)ccc3c2C(=O)c2ccccc2C3=O)c1O [Compound 125908] |
| > 10 | > 10 | > 10 | – | – | N#CC(C#N)=CNCCN1CCN(C=C(C#N)C#N)CC1 [Compound 343040] |
| > 10 | > 10 | > 10 | – | – | O=C(O)c1nn(-c2ccc(Cl)cc2)c2c1C(=O)c1ccccc1C2=O [Compound 360494] |
| > 10 | > 10 | > 10 | – | – | CN1CCc2[nH]nc(-c3n[nH]c4c3CN(C)CC4)c2C1 [Compound 371847] |

Further lines, the molecule ahead of its results:

| SMILES | IC50 [1] [µM] | IC50 [2] [µM] | IC50 [3] [µM] | potency as ERα inhibitor relative to TPSF (less potent) (ERα) [fold] | IC50 (ERα; T47D (ERE)3-Luc cells, 24 h, FIG. 13, E2 concentration for 99676 not stated, read-out: IC50 for inhibition of ERα-mediated gene expression) [µM] |
| --- | --- | --- | --- | --- | --- |
| CCCCCCC1(c2cccnc2)NC(=O)NC1=O (centres unmarked) [Compound 9503] | > 10 | 2.6 | > 10 | – | – |
| Nc1c(S(=O)(=O)O)cc(Nc2ccc(S(=O)(=O)O)c(Nc3nc(Cl)nc(Cl)n3)c2)c2c1C(=O)c1ccccc1C2=O [Compound 9545] | 3 | 0.7 | 3.8 | – | – |
| CCN(CC)CCOc1ccc(Cl)cc1Cc1ccccc1 [Compound 9548] | 4 | 1 | 5 | – | – |
| CCCCCN(CCCCC)CCC(O)c1cccc2ccccc12 (centres unmarked) [Compound 9671] | > 10 | > 10 | > 10 | – | – |
| O=C(Nc1cc[c]([Sb](=[O])([OH])[OH])cc1)c1ccccc1 [Compound 15596] | > 10 | 5 | > 10 | – | – |
| [Cu].c1ccc2c(c1)C1=NC2=NC2=NC(=NC3=NC(=NC4=NC(=N1)c1ccccc14)c1ccccc13)c1ccccc12 [Compound 43628] | > 10 | > 10 | > 10 | – | – |
| O=C1NC(=S)NC(=O)C1=Cc1cccc2cc3ccccc3cc12 [Compound 90737] | > 10 | 10 | > 10 | – | – |
